From patent publication US9340483B2, “Methods of treating amyotrophic lateral sclerosis” (Anida Pharma Inc., priority 2012, dated 2016)
Several values for one entry are separate records, joined by “and”; a condition that tells them apart may be missing. Equal values may be shown once. Entries after “also recorded” stand apart in the source; their conditions may differ.

Columns and labels:
[1] = Wst-1 cell viability assay after H2O2 + TNFα stress, motor neuron cell line; assay type: cell-based, mouse; conditions: mouse; NPD 100 nM alone, 24 hrs incub., control (veh.) = 100
Method: (§1) Pharma Inc.) were added to the growth medium. […] NPD1, or Compound 1 in Table 1, was analyzed for activity in NCS34 cells, a mouse motor neuron cell line. […] Treatment with H2O2 and 10 ng/ml TNFα caused between 26-37% cell death in the motor neurons (FIG. 1).

[2] = system: NSC34 cells; test: as above; assay type: cell-based, mouse
Method: as §1

[3] = system: C8-D1A cells; test: Wst-1 cell viability assay after H2O2 + TNFα stress, astrocyte cell line
Source text: It is well-known in the art that inflammation and oxidative stress are significant contributors to neurodegeneration. H2O2 is commonly used in experiments to simulate oxidate stress. […] Accordingly, in this in vitro assay, TNF-alpha and hydrogen peroxide (H2O2) were used as stressors to induce cell death to model ALS.
Cell viability after treatment with H2O2 and TNFα was examined in NCS34 cells, a mouse motor neuron cell line, and in C8-D1A cells, a mouse astrocyte cell line (from the American Type Tissue Culture Collection). The protocol for assessing the activity of any of the compounds disclosed herein in cultured cells is as follows:
Day 1: Cells were plated into 96 well plates at a confluency of 60%. Cells were maintained in growth medium consisting of Dulbecco's Modified Essential Medium (DMEM, LifeTechnologies Inc.) supplemented with 10% fetal bovine serum (Hyclone) and incubated in a tissue culture incubator at 37° C., 95% […] and 5% CO2.
Day 2: The growth medium was changed to 200 μl/well DMEM without fetal bovine serum. Additional agents, such as varying concentrations of H2O2 (Sigma Aldrich Inc.), TNFalpha, and a vehicle control or any of the compounds disclosed herein, e.g., NPD1 (Anida Pharma Inc.) were added to the growth medium. The cells were incubated overnight for 24 hours in a tissue culture incubator at 37° C., 95% […] and 5% CO2
Day 3: After 24 hours, 20 μl of Wst-1 cell viability reagent (Roche Applied Sciences Inc.) was added to each well (1:10 dilution in growth medium). Mix well by gently rocking the plate side-to-side. The cells were incubated at 37° C. for 60 minutes. […] A background control (or blank) for the growth medium and WST-1 reagent (without cells) can also be measured. The 630 nm background absorbance values are then subtracted from the 450 nm measurement for a normalized 450 nm absorbance value.
NPD1 activity was analyzed in C8-D1A cells, a mouse astrocyte cell line (American Type Tissue Culture Collection). C8-D1A cells were treated with increasing concentrations of H2O2 (1 μM, 10 μM, 50 μM, 100 μM, 400 μM and 800 μM) and 10 ng/ml TNFα without NPD1, or with 50 nM or 100 nM NPD1 for 24 hours. Cell viability was determined by Wst-1 cell viability assay, as described in Example 1. Each sample was performed in triplicate.

[4] = NPD 100 nM + TNFa 10 ng/ml + H2O2 1 uM, 24 hrs
[5] = NPD 100 nM + TNFa 10 ng/ml + H2O2 10 uM, 24 hrs
[6] = NPD 100 nM + TNFa 10 ng/ml + H2O2 50 uM, 24 hrs
[7] = NPD 100 nM + TNFa 10 ng/ml + H2O2 100 uM, 24 hrs
[8] = NPD 100 nM + TNFa 10 ng/ml + H2O2 400 uM, 24 hrs
[9] = NPD 100 nM + TNFa 10 ng/ml + H2O2 800 uM, 24 hrs
[10] = 0 uM H2O2 + 10 ng/ml TNFa, 50 nM NPD1, 24 hours
[11] = 0 uM H2O2 + 10 ng/ml TNFa, 100 nM NPD1, 24 hours
[12] = 25 uM H2O2 + 10 ng/ml TNFa, 50 nM NPD1, 24 hours
[13] = 25 uM H2O2 + 10 ng/ml TNFa, 100 nM NPD1, 24 hours
[14] = 50 uM H2O2 + 10 ng/ml TNFa, 50 nM NPD1, 24 hours
[15] = 50 uM H2O2 + 10 ng/ml TNFa, 100 nM NPD1, 24 hours
[16] = 100 uM H2O2 + 10 ng/ml TNFa, 50 nM NPD1, 24 hours
[17] = 100 uM H2O2 + 10 ng/ml TNFa, 100 nM NPD1, 24 hours
[18] = 200 uM H2O2 + 10 ng/ml TNFa, 50 nM NPD1, 24 hours
[19] = 200 uM H2O2 + 10 ng/ml TNFa, 100 nM NPD1, 24 hours
[20] = 400 uM H2O2 + 10 ng/ml TNFa, 50 nM NPD1, 24 hours
[21] = 400 uM H2O2 + 10 ng/ml TNFa, 100 nM NPD1, 24 hours
[22] = 800 uM H2O2 + 10 ng/ml TNFa, 50 nM NPD1, 24 hours
[23] = 800 uM H2O2 + 10 ng/ml TNFa, 100 nM NPD1, 24 hours
[24] = Mus musculus, C8-D1A, read-out: % cell viability

CC/C=C\C[C@H](O)\C=C/C=C/C=C/[C@H](O)C/C=C\C/C=C\CCC(=O)[O-].[Na+] [NPD1, Sodium 4Z,7Z,10R,11E,13E,15Z,17S, 19Z)-10,17-dihydroxydocosa-4,7,11,13,15,19-hexaenoate]
viability at 24 h, 100 nM [1]: 95.6%
cell viability (in words) ([2]; 100 nM NPD1, 24 hours with H2O2 and 10 ng/ml TNFα): increased cell viability
viability at 0.1 µM ([2]; Mus musculus, NSC-34, read-out: % cell viability): 78%
% Cell Viability [2, 4]: 105.1%
Avg Abs 450 nm [2, 4]: 0.7104
% Cell Viability [2, 5]: 95.6%
Avg Abs 450 nm [2, 5]: 0.645
% Cell Viability ([2]; NPD 100 nM + TNFa 10 ng/ml + H2O2 10 uM, 24 hrs, listed as NPD): 95.45%
% Cell Viability [2, 6]: 74.46%
Avg Abs 450 nm [2, 6]: 0.5031
% Cell Viability [2, 7]: 78.22%
Avg Abs 450 nm [2, 7]: 0.5285
% Cell Viability [2, 8]: 78.26%
Avg Abs 450 nm [2, 8]: 0.5288
% Cell Viability [2, 9]: 81.41%
Avg Abs 450 nm [2, 9]: 0.5501
Avg Abs 450 nm ([2]; NPD 100 nM alone, 24 hrs incub.): 0.6462
Percent saved with NPD1 (14/36) ([2]; NPD1 100 nM vs TNFa + H2O2 alone): 39%
cell viability (in words) ([2]; NPD1 added to cells treated with 50-800 μM H2O2 and 10 ng/ml TNFα): increases in cell viability
% cells apoptosed ([2]; TNFa + H2O2 + NPD1 100 nM (TNFa + H2O2 alone: 36)): 22%
absorbance after subtraction of background signal, avg [3, 10]: 0.586 and 0.5861
absorbance after subtraction of background signal, replicates 1-3 [3, 10]: 0.561 and 0.632 and 0.565
raw absorbance Avg. [3, 10]: 1.03
raw absorbance, replicates 1-3 [3, 10]: 1.0047 and 1.0764 and 1.0093
absorbance after subtraction of background signal, avg [3, 11]: 0.593 and 0.5931
absorbance after subtraction of background signal, replicates 1-3 [3, 11]: 0.565 and 0.587 and 0.627
raw absorbance Avg. [3, 11]: 1.037
raw absorbance, replicates 1-3 [3, 11]: 1.0312 and 1.071 and 1.009
astrocyte cell survival and viability (in words) ([3]; 50 nM or 100 nM NPD1, H2O2 + 10 ng/ml TNFα, 24 hours): increased cell survival and viability in a dose-dependent manner; also recorded: increased astrocyte viability and reduced astrocyte death
absorbance after subtraction of background signal, avg [3, 12]: 0.560 and 0.5597
absorbance after subtraction of background signal, replicates 1-3 [3, 12]: 0.551 and 0.541 and 0.588
raw absorbance Avg. [3, 12]: 1.004
raw absorbance, replicates 1-3 [3, 12]: 0.9946 and 0.985 and 1.0316
absorbance after subtraction of background signal, avg [3, 13]: 0.555 and 0.5549
absorbance after subtraction of background signal, replicates 1-3 [3, 13]: 0.563 and 0.524 and 0.578
raw absorbance Avg. [3, 13]: 0.9989
raw absorbance, replicates 1-3 [3, 13]: 0.9676 and 1.0219 and 1.0073
absorbance after subtraction of background signal, avg [3, 14]: 0.392 and 0.3915
absorbance after subtraction of background signal, replicates 1-3 [3, 14]: 0.416 and 0.399 and 0.360
raw absorbance Avg. [3, 14]: 0.8355
raw absorbance, replicates 1-3 [3, 14]: 0.8604 and 0.8427 and 0.8035
absorbance after subtraction of background signal, avg [3, 15]: 0.412 and 0.4123
absorbance after subtraction of background signal, replicates 1-3 [3, 15]: 0.434 and 0.390 and 0.414
raw absorbance Avg. [3, 15]: 0.8563
raw absorbance, replicates 1-3 [3, 15]: 0.8335 and 0.8579 and 0.8776
absorbance after subtraction of background signal, avg [3, 16]: 0.070 and 0.07003
absorbance after subtraction of background signal, replicates 1-3 [3, 16]: 0.029 and 0.072 and 0.109
raw absorbance Avg. [3, 16]: 0.514
raw absorbance, replicates 1-3 [3, 16]: 0.4731 and 0.5164 and 0.5526
absorbance after subtraction of background signal, avg [3, 17]: 0.128 and 0.1278
absorbance after subtraction of background signal, replicates 1-3 [3, 17]: 0.125 and 0.138 and 0.120
raw absorbance Avg. [3, 17]: 0.5718
raw absorbance, replicates 1-3 [3, 17]: 0.5823 and 0.5639 and 0.5691
absorbance after subtraction of background signal, replicates 1-3 [3, 18]: −0.021 and −0.023 and −0.022
raw absorbance Avg. [3, 18]: 0.4217
raw absorbance, replicates 1-3 [3, 18]: 0.4228 and 0.4206 and 0.4217
absorbance after subtraction of background signal, replicates 1-3 [3, 19]: −0.027 and −0.023 and −0.015
raw absorbance Avg. [3, 19]: 0.4222
raw absorbance, replicates 1-3 [3, 19]: 0.4209 and 0.429 and 0.4166
absorbance after subtraction of background signal, replicates 1-3 [3, 20]: −0.018 and −0.017 and −0.014
raw absorbance Avg. [3, 20]: 0.4274
raw absorbance, replicates 1-3 [3, 20]: 0.4258 and 0.4267 and 0.4296
absorbance after subtraction of background signal, replicates 1-3 [3, 21]: −0.015 and −0.016 and −0.013
raw absorbance Avg. [3, 21]: 0.4291
raw absorbance, replicates 1-3 [3, 21]: 0.4277 and 0.4307 and 0.4289
absorbance after subtraction of background signal, replicates 1-3 [3, 22]: −0.001 and −0.006 and 0.000
raw absorbance Avg. [3, 22]: 0.4415
raw absorbance, replicates 1-3 [3, 22]: 0.4431 and 0.4376 and 0.4439
absorbance after subtraction of background signal, avg [3, 23]: 0.005 and 0.004833
absorbance after subtraction of background signal, replicates 1-3 [3, 23]: 0.002 and 0.004 and 0.008
raw absorbance Avg. [3, 23]: 0.4488
raw absorbance, replicates 1-3 [3, 23]: 0.4484 and 0.4523 and 0.4458
viability at 0.05 µM [3, 24]: 12%
viability at 0.1 µM [3, 24]: 23%
% cells apoptosed ([3]; TNFa + H2O2 + NPD1 50 nM (TNFa + H2O2 alone: 99)): 88%
% cells apoptosed ([3]; TNFa + H2O2 + NPD1 100 nM (TNFa + H2O2 alone: 99)): 77%
